Results reported in ChEMBL document CHEMBL3886578, “Pharmaceutical composition for treating diabetes” (2016).

Target: T1, Glycogen [starch] synthase, muscle (Homo sapiens, UniProt P13807)
T1 sequence (P13807 whole entry): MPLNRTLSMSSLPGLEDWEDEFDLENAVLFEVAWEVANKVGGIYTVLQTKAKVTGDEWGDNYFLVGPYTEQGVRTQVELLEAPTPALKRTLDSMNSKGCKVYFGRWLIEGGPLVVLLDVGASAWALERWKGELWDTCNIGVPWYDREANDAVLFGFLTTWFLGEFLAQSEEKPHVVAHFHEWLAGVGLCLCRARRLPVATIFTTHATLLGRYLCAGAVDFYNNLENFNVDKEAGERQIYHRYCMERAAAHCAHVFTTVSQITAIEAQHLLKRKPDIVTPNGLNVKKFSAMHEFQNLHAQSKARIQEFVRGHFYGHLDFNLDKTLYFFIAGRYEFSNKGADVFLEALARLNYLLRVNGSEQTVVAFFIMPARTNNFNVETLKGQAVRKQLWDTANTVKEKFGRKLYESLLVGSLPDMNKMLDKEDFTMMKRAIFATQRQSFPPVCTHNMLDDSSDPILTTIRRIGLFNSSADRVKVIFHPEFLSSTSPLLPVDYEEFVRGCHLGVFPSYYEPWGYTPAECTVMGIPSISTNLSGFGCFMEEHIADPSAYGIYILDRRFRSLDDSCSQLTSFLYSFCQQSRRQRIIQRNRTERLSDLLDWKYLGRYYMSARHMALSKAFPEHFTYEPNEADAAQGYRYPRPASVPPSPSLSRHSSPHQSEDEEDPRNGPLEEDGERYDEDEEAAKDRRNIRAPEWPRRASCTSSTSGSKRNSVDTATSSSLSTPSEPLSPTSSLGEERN
Assay: Glycogen Synthase Activity Assay: To a polystyrene 96-well plate, a solution containing 30 mM glycylglycine (pH 7.3), 40 mM KCl, 20 mM MgCl2, 9.2% DMSO containing one of the test compounds at various concentrations, and 10 mM glucose-6-phosphate (Sigma-Aldrich Corporation, G7879) was added by 12 uL/well. Next, a substrate solution containing 30 mM glycylglycine (pH 7.3), 4.3 mg/mL of glycogen (Sigma-Aldrich Corporation, G8876), 21.6 mM UDP-glucose (Sigma-Aldrich Corporation, U4625), 21.6 mM phosphoenolpyruvic acid (Sigma-Aldrich Corporation, P0564), and 4.05 mM NADH (Sigma-Aldrich Corporation, N8129) was added by 18 uL/well. Further, an enzyme solution containing 50 mM Tris-HCl (pH 8.0), 27 mM DTT (Nacalai Tesque, Inc., 14128-04), 0.2 mg/mL of bovine serum albumin, 0.17 mg/mL of the glycogen synthase, 1.5 uL of a pyruvate kinase/lactate dehydrogenase solution (Sigma-Aldrich Corporation, P0294) was added by 18 uL/well to prepare a reaction solution. After the reaction solution was incubated (at 30° C. for 25 minutes for Examples 1 to 10, at 37° C. for 20 minutes for Examples 11 to 75), the absorbance at 340 nm was measured using Benchmark Plus (Bio-Rad Laboratories, Inc.).

| EC50 | SMILES |
| --- | --- |
| 780 nM | O=C(O)[C@@H]1CCCN1C(=O)c1cccc(COc2ccc(-c3cc(F)cc4c3OCC=C4)cc2)c1 |
| 100 nM | O=C(O)[C@@H]1CCCN1C(=O)c1cccc(COc2ccc(-c3cc(F)c(F)c4c3OCC=C4)cc2)c1 |
